Experimental data as given in patent US20250368666A1, “INDAZOLE COMPOUNDS” (TYRA BIOSCIENCES, INC., priority 2022, published 2025).

Tests used:
Experiment in all cases: Kinase binding assay (kinase-tagged T7 phage, affinity beads, qPCR), Kd
FGFR4 = target: T1, FGFR4 (Homo sapiens, UniProt P22455); details: read-out: FGFR4 (Kd nM)
T1 construct: made in house; host or cells: E. coli (BL21-derived), T7 phage
In short: (§1)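 Competition binding; kinase-tagged T7 phage lysate vs immobilised biotinylated ligand on streptavidin beads, 0.9% DMSO final. 11-pt 3-fold dilutions, 3 DMSO controls. qPCR of eluted kinase; Kd by Hill fit, slope −1.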

FGFR3 = target: T2, FGFR3 (Homo sapiens, UniProt P22607); details: read-out: FGFR3 (Kd nM)
T2 construct: made in house; host or cells: E. coli (BL21-derived), T7 phage
T2 sequence (P22607 23-806): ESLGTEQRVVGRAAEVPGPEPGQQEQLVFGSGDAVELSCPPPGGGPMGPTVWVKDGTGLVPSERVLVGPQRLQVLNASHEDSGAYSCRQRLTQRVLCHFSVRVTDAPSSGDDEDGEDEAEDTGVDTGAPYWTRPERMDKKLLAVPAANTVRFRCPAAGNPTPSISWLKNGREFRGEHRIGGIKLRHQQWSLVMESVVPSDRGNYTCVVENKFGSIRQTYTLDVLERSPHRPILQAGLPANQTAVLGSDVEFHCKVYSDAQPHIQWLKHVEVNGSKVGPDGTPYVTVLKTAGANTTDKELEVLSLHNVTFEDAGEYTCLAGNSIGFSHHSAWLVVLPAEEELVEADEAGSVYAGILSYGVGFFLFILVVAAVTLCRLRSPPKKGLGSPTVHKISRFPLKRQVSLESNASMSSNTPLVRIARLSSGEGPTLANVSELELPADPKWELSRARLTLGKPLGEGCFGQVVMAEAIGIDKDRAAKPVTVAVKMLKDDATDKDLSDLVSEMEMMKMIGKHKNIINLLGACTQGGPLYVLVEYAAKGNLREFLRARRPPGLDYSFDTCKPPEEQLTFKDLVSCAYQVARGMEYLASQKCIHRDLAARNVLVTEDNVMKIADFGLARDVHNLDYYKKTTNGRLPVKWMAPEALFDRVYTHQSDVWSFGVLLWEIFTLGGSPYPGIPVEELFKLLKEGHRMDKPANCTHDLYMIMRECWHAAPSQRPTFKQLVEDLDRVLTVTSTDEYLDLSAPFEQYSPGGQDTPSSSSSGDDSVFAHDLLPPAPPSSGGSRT
In short: as §1

FGFR3 (V555M) = target: T3, FGFR3 (V555M) (Homo sapiens, UniProt P22607, V555M); details: V555M mutant; read-out: FGFR3 (V555M) (Kd nM)
T3 construct: made in house; host or cells: E. coli (BL21-derived), T7 phage
T3 sequence (P22607 23-806 V555M): as the sequence (P22607 23-806) above, with V533M counted along it
In short: as §1

FGFR2 = target: T4, FGFR2 (Homo sapiens, UniProt P21802); details: read-out: FGFR2 (Kd nM)
T4 construct: made in house; host or cells: E. coli (BL21-derived), T7 phage
T4 sequence (P21802 22-821): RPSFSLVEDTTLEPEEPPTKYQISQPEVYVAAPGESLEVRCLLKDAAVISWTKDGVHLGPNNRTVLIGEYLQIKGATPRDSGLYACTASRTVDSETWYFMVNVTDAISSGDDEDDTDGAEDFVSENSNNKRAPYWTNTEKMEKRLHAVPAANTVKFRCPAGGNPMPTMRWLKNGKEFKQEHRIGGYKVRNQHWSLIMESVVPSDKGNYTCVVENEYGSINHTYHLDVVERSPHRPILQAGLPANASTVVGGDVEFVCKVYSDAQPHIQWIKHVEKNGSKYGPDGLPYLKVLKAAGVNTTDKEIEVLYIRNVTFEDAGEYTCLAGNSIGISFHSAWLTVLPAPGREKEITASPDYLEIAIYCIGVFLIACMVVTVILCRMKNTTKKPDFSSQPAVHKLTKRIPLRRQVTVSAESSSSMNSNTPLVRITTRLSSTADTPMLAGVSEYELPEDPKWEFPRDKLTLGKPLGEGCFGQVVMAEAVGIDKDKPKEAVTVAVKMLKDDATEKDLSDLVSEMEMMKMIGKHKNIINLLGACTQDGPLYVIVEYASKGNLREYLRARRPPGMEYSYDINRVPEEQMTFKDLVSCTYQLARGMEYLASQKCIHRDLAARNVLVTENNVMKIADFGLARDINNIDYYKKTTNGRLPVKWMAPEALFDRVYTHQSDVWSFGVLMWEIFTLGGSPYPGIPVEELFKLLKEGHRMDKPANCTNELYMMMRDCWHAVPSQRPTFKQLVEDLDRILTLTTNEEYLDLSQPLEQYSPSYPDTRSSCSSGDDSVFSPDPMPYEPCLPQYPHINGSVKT
In short: as §1

FGFR1 = target: T5, FGFR1 (Homo sapiens, UniProt P11362); details: read-out: FGFR1 (Kd nM)
T5 construct: made in house; host or cells: E. coli (BL21-derived), T7 phage
T5 sequence (P11362 22-822): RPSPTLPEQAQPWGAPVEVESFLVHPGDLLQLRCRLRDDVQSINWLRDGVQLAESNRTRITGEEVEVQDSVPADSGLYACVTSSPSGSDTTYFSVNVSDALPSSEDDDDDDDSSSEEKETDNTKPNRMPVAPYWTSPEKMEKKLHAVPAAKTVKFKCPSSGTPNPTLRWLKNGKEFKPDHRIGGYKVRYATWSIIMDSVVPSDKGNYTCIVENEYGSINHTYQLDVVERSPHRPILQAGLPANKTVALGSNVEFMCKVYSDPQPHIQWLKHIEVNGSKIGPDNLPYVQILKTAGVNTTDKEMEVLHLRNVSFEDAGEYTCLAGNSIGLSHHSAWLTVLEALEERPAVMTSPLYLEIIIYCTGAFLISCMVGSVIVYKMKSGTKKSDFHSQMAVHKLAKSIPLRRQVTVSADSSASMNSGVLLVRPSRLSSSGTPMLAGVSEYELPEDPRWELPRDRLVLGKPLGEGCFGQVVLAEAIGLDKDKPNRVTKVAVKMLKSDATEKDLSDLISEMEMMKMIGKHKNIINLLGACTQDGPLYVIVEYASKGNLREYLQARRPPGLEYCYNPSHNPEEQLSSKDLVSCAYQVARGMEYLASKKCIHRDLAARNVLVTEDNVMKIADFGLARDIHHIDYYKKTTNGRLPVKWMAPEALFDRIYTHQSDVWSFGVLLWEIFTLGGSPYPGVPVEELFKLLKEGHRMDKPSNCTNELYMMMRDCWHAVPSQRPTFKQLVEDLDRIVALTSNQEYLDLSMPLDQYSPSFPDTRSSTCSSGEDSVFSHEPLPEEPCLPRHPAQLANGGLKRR
In short: as §1

T1 sequence (P22455 22-802): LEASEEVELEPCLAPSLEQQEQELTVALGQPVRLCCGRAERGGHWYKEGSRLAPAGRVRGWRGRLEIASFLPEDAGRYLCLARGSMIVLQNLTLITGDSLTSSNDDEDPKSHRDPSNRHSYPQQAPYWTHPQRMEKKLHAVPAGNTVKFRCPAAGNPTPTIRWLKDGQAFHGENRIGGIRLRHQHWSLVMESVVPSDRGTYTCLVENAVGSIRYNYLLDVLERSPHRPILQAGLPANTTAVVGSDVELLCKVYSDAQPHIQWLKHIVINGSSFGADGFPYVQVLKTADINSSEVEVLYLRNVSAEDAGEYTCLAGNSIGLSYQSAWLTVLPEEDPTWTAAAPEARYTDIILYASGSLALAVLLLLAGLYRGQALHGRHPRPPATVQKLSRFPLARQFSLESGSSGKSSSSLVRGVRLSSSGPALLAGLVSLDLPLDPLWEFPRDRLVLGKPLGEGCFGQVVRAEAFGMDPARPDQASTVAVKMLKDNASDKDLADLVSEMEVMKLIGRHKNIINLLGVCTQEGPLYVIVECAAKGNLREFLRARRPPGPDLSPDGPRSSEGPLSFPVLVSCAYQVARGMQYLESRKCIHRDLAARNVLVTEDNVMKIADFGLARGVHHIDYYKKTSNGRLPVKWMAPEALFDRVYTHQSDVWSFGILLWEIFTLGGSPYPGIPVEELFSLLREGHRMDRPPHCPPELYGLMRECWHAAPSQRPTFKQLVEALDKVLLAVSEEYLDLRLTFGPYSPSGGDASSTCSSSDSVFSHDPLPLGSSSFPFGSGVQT

Structure (SMILES)	Kd (FGFR4)	Kd (FGFR3)	Kd (FGFR3 (V555M))	Kd (FGFR2)	Kd (FGFR1)
C[C@H](Oc1ccc2[nH]nc(-c3cnc(N4C[C@H](CS(C)(=O)=O)[C@H]4C)c(F)c3)c2c1)c1c(Cl)cncc1Cl [Example 208, 5-((S)-1-(3,5-dichloropyridin-4-yl)ethoxy)-3-(5-fluoro-6-((2R,3S)-2-methyl-3-((meth-ylsulfonyl)meth-yl)azetidin-1-yl)pyridin-3-yl)-1H-indazole]	300 to 1000 nM	50 to 300 nM	50 to 300 nM	> 1000 nM	> 1000 nM
C[C@@H](Oc1ccc2[nH]nc(-c3ccc(N4CC(C)(N5CCP(C)(=O)CC5)C4)nc3)c2c1)c1c(Cl)cncc1Cl [Example 226, (R)-1-(1-(5-(5-(1-(3,5-dichloropyridin-4-yl)ethoxy)-1H-indazol-3-yl)pyridin-2-yl)-3-methylazetidin-3-yl)-4-methyl-1,4-azaphosphinane 4-oxide]	1 to 50 nM	1 to 50 nM	1 to 50 nM	1 to 50 nM	1 to 50 nM
C[C@@H](Oc1ccc2[nH]nc(-c3ccc(N4CC(C)(NCP(C)(C)=O)C4)nc3)c2c1)c1c(Cl)cncc1Cl [Example 230, 1-[5-[5-[(1R)-1-(3,5-dichloro-4-pyridyl)ethoxy]-1H-indazol-3-yl]-2-pyridyl]-N-(di-methylphosphoryl-methyl)-3-methyl-azetidin-3-amine]	1 to 50 nM	1 to 50 nM	1 to 50 nM	1 to 50 nM	1 to 50 nM
C[C@@H](Oc1ccc2[nH]nc(-c3ccc(N4CC(C)(N5C[C@H]6C[C@@H]5CO6)C4)nc3)c2c1)c1c(Cl)cncc1Cl [Example 231, (1R,4R)-5-(1-(5-(5-((R)-1-(3,5-dichloropyridin-4-yl)ethoxy)-1H-indazol-3-yl)pyridin-2-yl)-3-methylazetidin-3-yl)-2-oxa-5-aza-bicyclo[2.2.1]hep-tane]	1 to 50 nM	1 to 50 nM	1 to 50 nM	1 to 50 nM	1 to 50 nM
C=CCNC1(C)CN(c2ncc(-c3n[nH]c4ccc(O[C@H](C)c5c(Cl)cncc5Cl)cc34)cn2)C1 [Example 234, (R)-N-ally1-1-(5-(5-(1-(3,5-dichloropyridin-4-yl)ethoxy)-1H-indazol-3-yl)pyrimidin-2-yl)-3-methylazetidin-3-amine]	1 to 50 nM	1 to 50 nM	1 to 50 nM	1 to 50 nM	1 to 50 nM
C[C@@H](Oc1ccc2[nH]nc(-c3cnc(N4CC(C)(NCC5CC5)C4)nc3)c2c1)c1c(Cl)cncc1Cl [Example 235, (R)-N-(cyclo-propylmethyl)-1-(5-(5-(1-(3,5-dichloropyridin-4-yl)ethoxy)-1H-indazol-3-yl)pyrimidin-2-yl)-3-methylazetidin-3-amine]	1 to 50 nM	1 to 50 nM	1 to 50 nM	1 to 50 nM	1 to 50 nM

Next, values leading:

Kd (FGFR4)	Kd (FGFR3)	Kd (FGFR3 (V555M))	Kd (FGFR2)	Kd (FGFR1)	Structure (SMILES)
50 to 300 nM	50 to 300 nM	1 to 50 nM	> 1000 nM	300 to 1000 nM	C[C@H](Oc1ccc2[nH]nc(-c3cnc(N4C[C@@H](CS(C)(=O)=O)[C@@H]4C)c(F)c3)c2c1)c1c(Cl)cncc1Cl [Example 202, 5-((S)-1-(3,5-dichloropyridin-4-yl)ethoxy)-3-(5-fluoro-6-((2S,3R)-2-methyl-3-((meth-ylsulfonyl)meth-yl)azetidin-1-yl)pyridin-3-yl)-1H-indazole]
1 to 50 nM	1 to 50 nM	1 to 50 nM	1 to 50 nM	1 to 50 nM	Cc1ncc(Cl)c([C@@H](C)Oc2ccc3[nH]nc(-c4cnc(N5CC(C)(NC(C)C)C5)c(F)c4)c3c2)c1Cl [Example 221, 1-[5-[5-[(1R)-1-(3,5-dichloro-2-methyl-4-pyridyl)ethoxy]-1H-indazol-3-yl]-3-fluoro-2-pyridyl]-N-isopropyl-3-methyl-azetidin-3-amine]
1 to 50 nM	1 to 50 nM	1 to 50 nM	1 to 50 nM	1 to 50 nM	CNC1(C)CN(c2ccc(-c3n[nH]c4ccc(O[C@H](C)c5c(Cl)cncc5Cl)cc34)cn2)C1 [Example 233, (R)-1-(5-(5-(1-(3,5-dichloropyridin-4-yl)ethoxy)-1H-indazol-3-yl)pyridin-2-yl)-N,3-dimethylazetidin-3-amine]
